According to paper PMC10112881 (Cell reports, 2023):
Structures can show the parent of a compound that is named as a salt.

Key:
[1] = test system: HTR induced by DOI; experiment: Tolerance to DOI-induced HTR after repeated treatment; settings: 10 mg/kg/day IP 7 days, DOI 1 mg/kg challenge 24 h later
[2] = test system: head-twitch response; settings: cited from earlier work
[3] = test system: HTR induced by DOI; experiment: Blockade of DOI-induced head-twitch response; settings: 0.025 or 0.25 mg/kg, DOI 1 mg/kg
[4] = target: D3 (Homo sapiens, UniProt P35462); experiment: G protein dissociation BRET assay; type: cell-based; settings: relative to dopamine
Chain of D3 (P35462 whole entry): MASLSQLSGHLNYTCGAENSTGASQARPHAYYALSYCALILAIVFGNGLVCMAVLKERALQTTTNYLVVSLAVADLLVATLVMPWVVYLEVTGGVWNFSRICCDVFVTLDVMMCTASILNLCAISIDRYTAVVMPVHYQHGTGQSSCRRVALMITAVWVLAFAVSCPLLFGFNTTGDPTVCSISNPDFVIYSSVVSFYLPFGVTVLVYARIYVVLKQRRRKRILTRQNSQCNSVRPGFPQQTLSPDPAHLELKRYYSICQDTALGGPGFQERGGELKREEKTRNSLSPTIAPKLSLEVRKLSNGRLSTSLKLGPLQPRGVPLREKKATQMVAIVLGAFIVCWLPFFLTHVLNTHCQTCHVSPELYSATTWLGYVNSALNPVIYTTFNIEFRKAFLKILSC

[5] = test system: head-twitch response; experiment: Head-twitch response
[6] = test system: rest of the histamine and muscarinic GPCRs; experiment: G protein dissociation BRET assay; type: cell-based, human
[7] = test system: D1/5 subtypes; experiment: G protein dissociation BRET assay; type: cell-based, human
[8] = test system: 33 human aminergic GPCRs; experiment: Pan-aminergic GPCR functional screen; type: cell-based; settings: of 33 aminergic GPCR targets tested
[9] = target: 5-HT4 (Homo sapiens, UniProt Q13639); experiment: G protein dissociation BRET assay; type: cell-based
Chain of 5-HT4 (Q13639 whole entry): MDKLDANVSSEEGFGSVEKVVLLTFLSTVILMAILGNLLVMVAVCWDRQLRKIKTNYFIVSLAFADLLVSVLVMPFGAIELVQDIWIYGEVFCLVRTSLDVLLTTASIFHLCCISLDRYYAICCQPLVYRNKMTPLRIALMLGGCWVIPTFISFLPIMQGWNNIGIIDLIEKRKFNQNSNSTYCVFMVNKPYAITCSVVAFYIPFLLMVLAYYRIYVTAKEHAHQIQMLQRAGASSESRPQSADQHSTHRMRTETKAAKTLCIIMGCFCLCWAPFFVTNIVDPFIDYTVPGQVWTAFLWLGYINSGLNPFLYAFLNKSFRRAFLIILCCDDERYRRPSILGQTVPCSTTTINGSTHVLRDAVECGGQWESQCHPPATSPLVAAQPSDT

[10] = test system: rat cortical neurons; experiment: Dendritogenesis; type: cell-based
[11] = Forced swim test; type: in vivo, C57BL/6J mice; settings: 0.125 mg/kg before 2-Br-LSD 1 mg/kg, females and males
[12] = Open field test; type: in vivo, C57BL/6J mice; settings: 0.125 mg/kg alone or with 2-Br-LSD 1 mg/kg
[13] = test system: rat cortical neurons; experiment: Spinogenesis in cultured cortical neurons; type: cell-based; settings: 10 μM, 3 h at DIV18, read 24 h after onset

In the case of `COc1cc(CC(C)N)c(OC)cc1I.Cl` (racemic) [DOI, (±)-2,5-Dimethoxy-4-iodoamphetamine hydrochloride, reference compound], the “tolerance on HTR after repeated treatment” value [1] is reported as “significant degree of tachyphylaxis”.

For `CCCN1CCC[C@@H]2Cc3n[nH]cc3C[C@H]21` [(–)-quinpirole, (–)-quinpirole hydrochloride, reference compound], the “effect on the HTR induced by LSD” value [2] is given as “does not alter the HTR” and the “reduction of the response to DOI” value [3] is given as ~ 20%.

In the case of `CCN(CC)C(=O)[C@@H]1C=C2c3cccc4[nH]cc(c34)C[C@H]2N(C)C1.CCN(CC)C(=O)[C@@H]1C=C2c3cccc4[nH]cc(c34)C[C@H]2N(C)C1.O=C(O)C(O)C(O)C(=O)O` [LSD, (+)-lysergic acid diethylamide (2:1) (+)-tartrate, reference compound], the EMAX [4] is reported as 75%, the “induction of the HTR” value ([5]; 0.1 mg/kg IP, male C57BL/6J mice, 60 min) is reported as “significant increase in HTR counts” and the “agonism or antagonism at the rest of the histamine and muscarinic GPCRs” value [6] is reported as “neither 2-Br-LSD nor LSD possessed weak agonism or antagonism”. For the same compound, the “agonism at D1/5 subtypes” value [7] was “demonstrates agonist activity”, the “number of aminergic GPCR targets with agonist activity” value [8] was 20 and the “activity at 5-HT4” value [9] was “lack potent agonist or antagonist activity”.

In the case of `COc1cccc([C@H](O)C2CCN(CCc3ccc(F)cc3)CC2)c1OC` [Vol, volinanserin, reference compound], the “dendritic arbor complexity, administered alone” value ([10]; 0.1–1 μM) is reported as “did not change any parameter linked to dendritic arbor complexity”, the “effect of pre-treatment on 2-Br-LSD-induced total dendrite length” value ([10]; before 2-Br-LSD 1 μM) is reported as “blocked the increase in total dendrite length” and the “effect of pre-treatment on 2-Br-LSD decrease in immobility” value [11] is reported as “blocked the decrease in immobility”. For the same compound, the “locomotion in the OF” value [12] was “Neither Vol nor a combination of Vol and 2-Br-LSD affected locomotion”.

In the case of `COc1ccccc1N1CCN(CCN(C(=O)C2CCCCC2)c2ccccn2)CC1.O=C(O)/C=C\C(=O)O` [WAY-100,635, N-[2-[4-(2-Methoxyphenyl)-1-piperazinyl]ethyl]-N-(2-pyridinyl)cyclohexanecarboxamide maleate, reference compound], the “effect of pre-treatment on the response to 2-Br-LSD in the HTR assay” value ([5]; 1 mg/kg WAY-100,635, then 2-Br-LSD 3 mg/kg) is reported as “had no effect”.

For `CNC1(c2ccccc2Cl)CCCCC1=O` (stereo not drawn) [ketamine, Ketamine hydrochloride, reference compound], the spine density [13] was “spine density increased”.
